Measurements: paper PMC12519461 (ACS Infectious Diseases, 2025)
Where two headings read alike, the source gives them in different places.

What was measured:
A. cantonensis L1 larvae = assay: Anthelmintic activity against A. cantonensis first-stage larvae (motility/viability, 24 h); format: cell-based, Angiostrongylus cantonensis; conditions: for EC50: 24 h, read-out: A. cantonensis EC50 (μM ± SEM) L1; for activity against the larvae (in words): A. cantonensis larvae in vitro
Experimental: (§1) Larvae were washed three times in RPMI 1640 medium supplemented with 100 U/mL penicillin and 100 μg/mL streptomycin. Approximately 50 larvae were allocated into individual wells of a 96-well plate containing 200 μL of final volume of RPMI medium. […] Approximately 50 larvae were transferred to each well of a 96-well plate containing RPMI medium. […] Larval viability was monitored at 0 and 24 h post-treatment. […] Assays were performed in triplicate and repeated three times.

in vitro = format: cell-based; conditions: L4 larvae, up to 1000 μM, read-out: C. elegans LC50
Experimental: Synchronized fourth-stage (L4) C. elegans larvae were distributed into 96-well plates containing M9 buffer (60 larvae/well). […] After 24 h incubation at 21 °C, larval survival was determined by motility: larvae unresponsive to gentle mechanical stimulation were classified as nonviable. […] Assays were performed in triplicate and repeated three times.

[1] = Cytotoxicity in HaCat cells (MTT, 72 h); format: cell-based; conditions: human, from 500 μM
Experimental: Cytotoxicity was assessed using the MTT assay. After 72 h, MTT solution was added, followed by 3 h of incubation. Absorbance was measured at 595 nm using an Epoch Microplate Spectrophotometer (BioTek Instruments, Winooski, VT, USA). Assays were performed in triplicate and repeated three times.

A. cantonensis L3 larvae = assay: Anthelmintic activity against A. cantonensis infective third-stage larvae (motility/viability, 24 h); format: cell-based, Angiostrongylus cantonensis; conditions: in vitro, 21 °C, read-out: A. cantonensis EC50 (μM ± SEM) L3
Experimental: as §1

[2] = Angiostrongylus cantonensis, first-stage larvae (L1), in vitro, 21 °C
[3] = first-stage larvae (L1), in vitro, 21 °C

| SMILES | EC50 (A. cantonensis L1 larvae; Angiostrongylus cantonensis) [µM] | LC50 at 24 h (in vitro) [µM] | CC50 at 72 h [1] [µM] | activity against the larvae (in words) (A. cantonensis L1 larvae) | EC50 (A. cantonensis L1 larvae; [2]) [µM] | CC50 at 72 h ([1]; HaCat cells) [µM] | EC50 (A. cantonensis L1 larvae; [3]) [µM] | EC50 (A. cantonensis L3 larvae; Angiostrongylus cantonensis) [µM] | EC50 (A. cantonensis L3 larvae) [µM] |
| --- | --- | --- | --- | --- | --- | --- | --- | --- | --- |
| CCCSc1ccc2nc(NC(=O)OC)[nH]c2c1 [albendazole, reference compound] | 14.2 ± 1.1 | 14.8 ± 1.5 | > 500 |  |  |  |  |  |  |
| C(=C\c1ccccc1)/CN1CCN(C(c2ccccc2)c2ccccc2)CC1 [compound 1, cinnarizine, reference compound] |  | > 1000 |  |  |  |  |  |  |  |
| C(=C\c1ccccc1)/CN1CCN(Cc2ccccc2)CC1 [compound 1a, 1-Benzyl-4-[(E)-cinnamyl]piperazine] |  | > 1000 |  | no appreciable activity | > 100 | > 500 |  |  |  |
| COc1ccc(/C=C/CN2CCN(C(c3ccccc3)c3ccccc3)CC2)cc1 [compound 1b, 1-Benzhydryl-4-[(E)-3-(4-methoxyphenyl)allyl]piperazine] |  | > 1000 |  |  | 8.2 to 9.3 | > 500 | 8.2 ± 1.2 | 8.2 to 9.3 | 8.7 ± 0.9 |
| Clc1ccc(C(c2ccccc2)N2CCN(C/C=C/c3ccccc3)CC2)cc1 (stereo not shown) [compound 2, 1-[(4-Chlorophenyl)-phenyl-methyl]-4-[(E)-cinnamyl]piperazine, reference compound] |  | > 1000 |  |  | 4.2 ± 1.1 | > 500 |  | 8.6 ± 1.1 |  |
| Clc1ccc(CN2CCN(C/C=C/c3ccccc3)CC2)cc1 [compound 2a, 1-[(4-Chlorophenyl)methyl]-4-[(E)-cinnamyl]piperazine] |  | > 1000 |  | no appreciable activity | > 100 | > 500 |  |  |  |
| COc1ccc(/C=C/CN2CCN(C(c3ccccc3)c3ccc(Cl)cc3)CC2)cc1 (stereo not shown) [compound 2b, 1-[(4-Chlorophenyl)-phenyl-methyl]-4-[(E)-3-(4-methoxyphenyl)allyl]piperazine] |  | > 1000 |  |  | 8.2 to 9.3 | > 500 | 9.3 ± 0.9 | 8.2 to 9.3 | 8.8 ± 1.2 |
| O=C(/C=C/c1ccccc1)N1CCN(C(c2ccccc2)c2ccccc2)CC1 [compound 3, (E)-1-(4-Benzhydrylpiperazin-1-yl)-3-phenyl-prop-2-en-1-one] |  | > 1000 |  | no activity | > 100 | > 500 |  |  |  |
| O=C(/C=C/c1ccccc1)N1CCN(Cc2ccccc2)CC1 [compound 3a, (E)-1-(4-Benzylpiperazin-1-yl)-3-phenyl-prop-2-en-1-one] |  | > 1000 |  |  | 8.2 | > 500 | 8.7 ± 1.1 | 18.1 ± 1.5 |  |
| COc1ccc(/C=C/C(=O)N2CCN(C(c3ccccc3)c3ccccc3)CC2)cc1 [compound 3b, (E)-1-(4-Benzhydrylpiperazin-1-yl)-3-(4-methoxyphenyl)prop-2-en-1-one] |  | > 1000 |  |  | > 100 | > 500 |  |  |  |
| O=C(/C=C/c1ccc(O)cc1)N1CCN(C(c2ccccc2)c2ccccc2)CC1 [compound 3c, (E)-1-(4-Benzhydrylpiperazin-1-yl)-3-(4-hydroxyphenyl)prop-2-en-1-one] |  | > 1000 |  |  | > 100 | > 500 |  |  |  |
| COc1cc(/C=C/C(=O)N2CCN(C(c3ccccc3)c3ccccc3)CC2)ccc1O [compound 3d, (E)-1-(4-Benzhydrylpiperazin-1-yl)-3-(4-hydroxy-3-methoxy-phenyl)prop-2-en-1-one] |  | > 1000 |  |  | > 100 | > 500 |  |  |  |
| O=C(/C=C/c1ccc(O)c(O)c1)N1CCN(C(c2ccccc2)c2ccccc2)CC1 [compound 3e, (E)-1-(4-Benzhydrylpiperazin-1-yl)-3-(3,4-dihydroxyphenyl)prop-2-en-1-one] |  | > 1000 |  |  | > 100 | > 500 |  |  |  |
